Biological target: NP-1 (Homo sapiens, UniProt O14786)
Test: Biotinylated-VEGF-A165 (bt-VEGF-A165) binding to NP-1
Details: for inhibition at 3 µM: 3 μM compound, read-out: Screen (% inhibition at 3 μM); for inhibition at 30 µM: 30 μM compound, read-out: Screen (% inhibition at 30 μM)
Procedure: Human prostate carcinoma DU145 cells were cultured in growth medium (RPMI 1640 containing 10% FBS and L-glutamine). DU145 cells were seeded at the density of 2×10^4 cells per well (96-well plates) in 0.1 ml growth medium and transfected with adenovirus vectors containing the full-length open-reading frame of human NP-1. The Ad.NP-1-transfected cells grew for 2 days prior to a binding assay.
Confluent Ad.NP-1-transfected cells in 96-well plates were washed twice with phosphate-buffered saline (PBS). The various concentrations of compounds diluted in binding medium (Dulbecco's modified Eagle's medium, 25 mM HEPES pH 7.3 containing 0.1% BSA) were added, followed by addition of 2 nM of bt-VEGF-A165. After 2 h of incubation at room temperature, the medium was aspirated and washed three times with PBS. The bound bt-VEGF-A165 to NP-1 was detected by streptavidin-horseradish peroxidase conjugates and the enzyme substrate, and measured using a Tecan Genios plate reader at A450 nm with a reference wavelength at A595 nm. Non-specific binding was determined in the presence of 100-fold excess unlabelled VEGF-A165.
The 96-well plates were pre-coated with NP1 protein at 3 μg/ml overnight at 4° C. On the following day, the plates were treated with blocking buffer (PBS containing 1% BSA) and washed three times with wash buffer (PBS containing 0.1% Tween-20). The various concentrations of compounds diluted in PBS containing 1% DMSO were added, followed by addition of 0.25 nM of bt-VEGF-A165. After 2 h of incubation at room temperature, the plates were washed three times with wash buffer. The bound bt-VEGF-A165 to NP-1 was detected by streptavidin-horseradish peroxidase conjugates and the enzyme substrate, and measured using a Tecan Genios plate reader at A450 nm with a reference wavelength at A595 nm. Nonspecific binding was determined in the absence of NP-1 coated wells of the plates.

NP-1, sequence (O14786 22-923): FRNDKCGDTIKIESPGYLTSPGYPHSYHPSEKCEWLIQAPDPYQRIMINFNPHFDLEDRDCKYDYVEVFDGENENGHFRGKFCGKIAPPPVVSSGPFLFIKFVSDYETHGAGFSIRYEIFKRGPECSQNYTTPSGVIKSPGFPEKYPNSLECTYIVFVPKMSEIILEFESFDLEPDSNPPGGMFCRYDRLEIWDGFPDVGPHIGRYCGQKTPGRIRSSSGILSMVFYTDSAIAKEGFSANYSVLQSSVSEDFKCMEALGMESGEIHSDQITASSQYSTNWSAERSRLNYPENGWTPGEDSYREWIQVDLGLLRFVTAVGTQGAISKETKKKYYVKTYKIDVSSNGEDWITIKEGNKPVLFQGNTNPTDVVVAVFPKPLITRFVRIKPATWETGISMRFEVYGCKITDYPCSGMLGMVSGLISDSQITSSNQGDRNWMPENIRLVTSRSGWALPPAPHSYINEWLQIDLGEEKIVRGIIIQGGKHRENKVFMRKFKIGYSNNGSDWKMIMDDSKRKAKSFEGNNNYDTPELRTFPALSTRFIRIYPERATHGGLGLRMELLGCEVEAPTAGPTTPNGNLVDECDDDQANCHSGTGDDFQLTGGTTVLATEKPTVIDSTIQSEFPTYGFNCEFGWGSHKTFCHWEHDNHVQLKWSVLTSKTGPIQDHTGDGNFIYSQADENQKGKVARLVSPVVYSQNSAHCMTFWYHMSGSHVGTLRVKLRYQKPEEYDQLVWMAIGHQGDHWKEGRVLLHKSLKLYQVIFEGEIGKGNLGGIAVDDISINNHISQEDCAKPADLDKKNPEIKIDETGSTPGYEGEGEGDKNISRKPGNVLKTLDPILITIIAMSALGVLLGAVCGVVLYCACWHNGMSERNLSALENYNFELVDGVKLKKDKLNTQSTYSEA

Row | inhibition at 3 µM [%] | inhibition at 30 µM [%] | IC50 [nM] | Compound
1 | 98 | 99 | 40 | N=C(N)NCCC[C@H](NC(=O)c1sccc1NS(=O)(=O)c1cccc(NCc2csc(N3CCN(c4ccncc4)CC3)n2)c1)C(=O)O [Compound 57, (S)-5-guanidino-2-{[3-(3-{[2-(4-pyridin-4-yl-piperazin-1-yl)-thiazol-4-ylmethyl]-amino}-benzenesulfonylamino)-thiophene-2-carbonyl]-amino}-pentanoic acid]
2 | 81 |  |  | Cc1ccnc(NCCNCc2cccc(-c3cc4c(c(S(=O)(=O)Nc5ccsc5C(=O)N[C@@H](CCCNC(=N)N)C(=O)O)c3)OCC4)c2)c1 [Compound 45, (S)-5-Guanidino-2-({3-[5-(3-{[2-(4-methyl-pyridin-2-ylamino)-ethylamino]-methyl}-phenyl)-2,3-dihydro-benzofuran-7-sulfonylamino]-thiophene-2-carbonyl}-amino)-pentanoic acid]
3 | 47 |  | 3700 | N=C(N)NCCC[C@H](NC(=O)c1sccc1NS(=O)(=O)c1cccc(NCc2csc(N3CCN(CCO)CC3)n2)c1)C(=O)O [Compound 77, (S)-5-Guanidino-2-({3-[3-({2-[4-(2-hydroxy-ethyl)-piperazin-1-yl]-thiazol-4-ylmethyl}-amino)-benzenesulfonylamino]-thiophene-2-carbonyl}-amino)-pentanoic acid]
4 | 63 |  |  | N=C(N)NCCC[C@H](NC(=O)c1sccc1NS(=O)(=O)c1cccc(NCc2csc(N3CCN(c4ncncn4)CC3)n2)c1)C(=O)O [Compound 75, (S)-5-guanidino-2-{[3-(3-{[2-(4-[1,3,5]triazin-2-yl-piperazin-1-yl)-thiazol-4-ylmethyl]-amino}-benzenesulfonylamino)-thiophene-2-carbonyl]-amino}-pentanoic acid]
5 | 71 | 93 |  | N=C(N)NCCC[C@H](NC(=O)c1sccc1NS(=O)(=O)c1cccc(NCc2csc(N3CCN(c4ncccn4)CC3)n2)c1)C(=O)O [Compound 66, (S)-5-guanidino-2-{[3-(3-{[2-(4-pyrimidin-2-yl-piperazin-1-yl)-thiazol-4-ylmethyl]-amino}-benzenesulfonylamino)-thiophene-2-carbonyl]-amino}-pentanoic acid]
6 | 71 |  | 525 | N=C(N)NCCC[C@H](NC(=O)c1sccc1NS(=O)(=O)c1cc(-c2cccc(CN3CCN(CCO)CC3)c2)cc2c1OCC2)C(=O)O [Compound 55, (S)-5-Guanidino-2-{[3-(5-{3-[4-(2-hydroxy-ethyl)-piperazin-1-ylmethyl]-phenyl}-2,3-dihydro-benzofuran-7-sulfonylamino)-thiophene-2-carbonyl]-amino}-pentanoic acid]
7 | 57 | 89 |  | N=C(N)NCCC[C@H](NC(=O)c1sccc1NS(=O)(=O)c1cccc(NCc2csc(C3CCNCC3)n2)c1)C(=O)O [Compound 56, (S)-5-guanidino-2-[(3-{3-[(2-piperidin-4-yl-thiazol-4-ylmethyl)-amino]-benzenesulfonylamino}-thiophene-2-carbonyl)-amino]-pentanoic acid]
8 | 40 | 90 |  | N=C(N)NCCC[C@H](NC(=O)c1sccc1NS(=O)(=O)c1cccc(NCc2csc(N3CCN(Cc4ccccn4)CC3)n2)c1)C(=O)O [Compound 65, (S)-5-guanidino-2-{[3-(3-{[2-(4-pyridin-2-ylmethyl-piperazin-1-yl)-thiazol-4-ylmethyl]-amino}-benzenesulfonylamino)-thiophene-2-carbonyl]-amino}-pentanoic acid]
9 | 25 | 63 |  | N#Cc1cccc(NC(=O)CNc2cccc(S(=O)(=O)Nc3ccsc3C(=O)N[C@@H](CCCNC(=N)N)C(=O)O)c2)c1 [Compound 70, (S)-2-{[3-(3-{[(3-Cyano-phenylcarbamoyl)-methyl]-amino}-benzenesulfonylamino)-thiophene-2-carbonyl]-amino}-5-guanidino-pentanoic acid]

Second part, the molecule before the results:

Row | Compound | inhibition at 3 µM [%] | inhibition at 30 µM [%] | IC50 [nM]
10 | N=C(N)NCCC[C@H](NC(=O)c1sccc1NS(=O)(=O)c1cc(-c2cccc(CNCCO)c2)cc2c1OCC2)C(=O)O [Compound 35, (S)-5-Guanidino-2-{[3-(5-{3-[(2-hydroxy-ethylamino)-methyl]-phenyl}-2,3-dihydro-benzofuran-7-sulfonylamino)-thiophene-2-carbonyl]-amino}-pentanoic acid] | 71 | 96 | 
11 | N=C(N)NCCC[C@H](NC(=O)c1sccc1NS(=O)(=O)c1cc(-c2ccccc2CNCc2ncc[nH]2)cc2c1OCC2)C(=O)O [Compound 24, (S)-5-Guanidino-2-({3-[5-(2-{[(1H-imidazol-2-ylmethyl)-amino]-methyl}-phenyl)-2,3-dihydro-benzofuran-7-sulfonylamino]-thiophene-2-carbonyl}-amino)-pentanoic acid] | 67 | 100 | 
12 | COC(=O)C1CCN(Cc2cccc(-c3cc4c(c(S(=O)(=O)Nc5ccsc5C(=O)N[C@@H](CCCNC(=N)N)C(=O)O)c3)OCC4)c2)CC1 [Compound 7, 1-(3-{7-[2-((S)-1-Carboxy-4-guanidino-butylcarbamoyl)-thiophen-3-ylsulfamoyl]-2,3-dihydro-benzofuran-5-yl}-benzyl)-piperidine-4-carboxylic acid methyl ester] | 94 |  | 5
13 | COC(=O)C1CCN(Cc2ccccc2-c2cc3c(c(S(=O)(=O)Nc4ccsc4C(=O)N[C@@H](CCCNC(=N)N)C(=O)O)c2)OCC3)CC1 [Compound 5, 1-(2-{7-[2-((S)-1-Carboxy-4-guanidino-butylcarbamoyl)-thiophen-3-ylsulfamoyl]-2,3-dihydro-benzofuran-5-yl}-benzyl)-piperidine-4-carboxylic acid methyl ester] | 92 | 100 | 14
14 | N=C(N)NCCC[C@H](NC(=O)c1sccc1NS(=O)(=O)c1cc(-c2ccccc2CN2CCC(N)CC2)cc2c1OCC2)C(=O)O [Compound 21, (S)-2-[(3-{5-[2-(4-Amino-piperidin-1-ylmethyl)-phenyl]-2,3-dihydro-benzofuran-7-sulfonylamino}-thiophene-2-carbonyl)-amino]-5-guanidino-pentanoic acid] | 73 |  | 
15 | N=C(N)NCCC[C@H](NC(=O)c1sccc1NS(=O)(=O)c1cc(-c2ccccc2CN2CCN(Cc3ccncc3)CC2)cc2c1OCC2)C(=O)O [Compound 8, (S)-5-Guanidino-2-[(3-{5-[2-(4-pyridin-4-ylmethyl-piperazin-1-ylmethyl)-phenyl]-2,3-dihydro-benzofuran-7-sulfonylamino}-thiophene-2-carbonyl)-amino]-pentanoic acid] |  | 90 | 1800
16 | N=C(N)NCCC[C@H](NC(=O)c1sccc1NS(=O)(=O)c1cc(-c2cccc(CN3CCN(Cc4ccncc4)CC3)c2)cc2c1OCC2)C(=O)O [Compound 30, (S)-5-Guanidino-2-[(3-{5-[3-(4-pyridin-4-ylmethyl-piperazin-1-ylmethyl)-phenyl]-2,3-dihydro-benzofuran-7-sulfonylamino}-thiophene-2-carbonyl)-amino]-pentanoic acid] | 80 | 100 | 691
17 | N=C(N)NCCC[C@H](NC(=O)c1sccc1NS(=O)(=O)c1cc(-c2cccc(CN3CCC(CC(=O)O)CC3)c2)cc2c1OCC2)C(=O)O [Compound 4, (S)-2-[(3-{5-[3-(4-Carboxymethyl-piperidin-1-ylmethyl)-phenyl]-2,3-dihydro-benzofuran-7-sulfonylamino}-thiophene-2-carbonyl)-amino]-5-guanidino-pentanoic acid] | 80 |  | 72
18 | N=C(N)NCCC[C@H](NC(=O)c1sccc1NS(=O)(=O)c1cc(-c2cccc(CN3CCN(Cc4ccccn4)CC3)c2)cc2c1OCC2)C(=O)O [Compound 29, (S)-5-Guanidino-2-[(3-{5-[3-(4-pyridin-2-ylmethyl-piperazin-1-ylmethyl)-phenyl]-2,3-dihydro-benzofuran-7-sulfonylamino}-thiophene-2-carbonyl)-amino]-pentanoic acid] | 79 | 100 | 686
19 | N=C(N)NCCC[C@H](NC(=O)c1sccc1NS(=O)(=O)c1cc(-c2cccc(CN3CCN(c4ccccn4)CC3)c2)cc2c1OCC2)C(=O)O [Compound 27, (S)-5-Guanidino-2-[(3-{5-[3-(4-pyridin-2-yl-piperazin-1-ylmethyl)-phenyl]-2,3-dihydro-benzofuran-7-sulfonylamino}-thiophene-2-carbonyl)-amino]-pentanoic acid] | 88 | 97 | 625

Source: patent US20120201749A1, “NP-1 Antagonists and Their Therapeutic Use” (priority 2009, published 2012)
